Experimental data as given in ChEMBL document CHEMBL1275528, “RamA confers multidrug resistance in Salmonella enterica via increased expression of acrB, which is inhibited by chlorpromazine” (2008).
Converted amounts (≈) assume the structure as drawn.

Assays:
[1] = Antimicrobial activity against Salmonella serovar Typhimurium SL1344 by broth dilution method; format: functional; conditions: Salmonella enterica
[2] = Antimicrobial activity against Salmonella serovar Typhimurium SL1344 expressing ramA::aph mutant by broth dilution method; format: functional; conditions: Salmonella enterica
[3] = Antimicrobial activity against Salmonella serovar Typhimurium SL1344 expressing ramA::aph-pTRC hisA:ramA mutant by broth dilution method; format: functional; conditions: Salmonella enterica
[4] = Antimicrobial activity against Salmonella serovar Typhimurium SL1344 expressing ramA::aph-pTRC hisA:ramA mutant by broth dilution method in presence of IPTG; format: functional; conditions: Salmonella enterica
[5] = Antimicrobial activity against Salmonella serovar Typhimurium SL1344 expressing ramA::aph-pTRC hisA:ramA mutant by broth dilution method in presence of chlorpromzine; format: functional; conditions: Salmonella enterica
[6] = Antimicrobial activity against Salmonella serovar Typhimurium SL1344 by broth dilution method in presence of chlorpromazine; format: functional; conditions: Salmonella enterica
[7] = Antimicrobial activity against Salmonella serovar Typhimurium SL1344 expressing acrB::aph mutant by broth dilution method; format: functional; conditions: Salmonella enterica
[8] = Antimicrobial activity against Salmonella serovar Typhimurium SL1344 expressing acrD::aph mutant by broth dilution method; format: functional; conditions: Salmonella enterica
[9] = Antimicrobial activity against Salmonella serovar Typhimurium SL1344 expressing acrF::aph mutant by broth dilution method; format: functional; conditions: Salmonella enterica
[10] = Antimicrobial activity against Salmonella serovar Typhimurium SL1344 expressing tolC::aph mutant by broth dilution method; format: functional; conditions: Salmonella enterica
[11] = Antimicrobial activity against Salmonella serovar Typhimurium SL1344 expressing marA::aph mutant by broth dilution method; format: functional; conditions: Salmonella enterica
[12] = Antimicrobial activity against Salmonella serovar Typhimurium SL1344 expressing soxS::aph mutant by broth dilution method; format: functional; conditions: Salmonella enterica
[13] = Antimicrobial activity against Salmonella serovar Typhimurium SL1344 assessed as ramA expression at 200 ug/ml; format: functional
[14] = Antimicrobial activity against Salmonella serovar Typhimurium SL1344 expressing acrB::aph mutant assessed as ramA expression at 200 ug/ml; format: functional
[15] = Antimicrobial activity against Salmonella serovar Typhimurium SL1344 assessed as acrB expression at 200 ug/ml; format: functional
[16] = Antimicrobial activity against Salmonella serovar Typhimurium SL1344 expressing ramA::aph mutant assessed as acrB expression at 200 ug/ml; format: functional
Salmonella typhimurium [17] = experiment: Antimicrobial activity against Salmonella serovar Typhimurium LT2 by broth dilution method; format: functional, Salmonella enterica subsp. enterica serovar Typhimurium; conditions: Salmonella enterica
Salmonella typhimurium [18] = experiment: Antimicrobial activity against Salmonella serovar Typhimurium 14028S by broth dilution method; format: functional, Salmonella enterica subsp. enterica serovar Typhimurium; conditions: Salmonella enterica
[19] = Antimicrobial activity against Salmonella serovar Binza 8269 by broth dilution method; format: functional, Salmonella enterica subsp. enterica serovar Binza; conditions: Salmonella enterica
Salmonella enteritidis = experiment: Antimicrobial activity against Salmonella serovar Enteritidis 5188 by broth dilution method; format: functional, Salmonella enterica subsp. enterica serovar Enteritidis; conditions: Salmonella enterica
[20] = Antimicrobial activity against Salmonella serovar Hadar by broth dilution method; format: functional, Salmonella enterica subsp. enterica serovar Hadar; conditions: Salmonella enterica
[21] = Antimicrobial activity against Salmonella serovar Heidelberg 5171 by broth dilution method; format: functional, Salmonella enterica subsp. enterica serovar Heidelberg; conditions: Salmonella enterica
[22] = Antimicrobial activity against Salmonella serovar Haifa 9878 by broth dilution method; format: functional, Salmonella enterica subsp. enterica serovar Haifa; conditions: Salmonella enterica
[23] = Antimicrobial activity against Salmonella serovar Kedougou by broth dilution method; format: functional, Salmonella enterica subsp. enterica serovar Kedougou; conditions: Salmonella enterica
[24] = Antimicrobial activity against Salmonella serovar Mbandaka 7892 by broth dilution method; format: functional, Salmonella enterica subsp. enterica serovar Mbandaka; conditions: Salmonella enterica
[25] = Antimicrobial activity against Salmonella serovar Montevideo 5747 by broth dilution method; format: functional, Salmonella enterica subsp. enterica serovar Montevideo; conditions: Salmonella enterica
[26] = Antimicrobial activity against Salmonella serovar Newport 129 by broth dilution method; format: functional, Salmonella enterica subsp. enterica serovar Newport; conditions: Salmonella enterica
[27] = Antimicrobial activity against Salmonella serovar Virchow 5742 by broth dilution method; format: functional, Salmonella enterica subsp. enterica serovar Virchow; conditions: Salmonella enterica

SMILES: CCn1cc(C(=O)O)c(=O)c2ccc(C)nc21 [NALIDIXIC ACID]
- MIC [1]: 4 µg/mL (≈ 17.2 µM)
- MIC [2]: 4 µg/mL (≈ 17.2 µM)
- MIC [3]: 16 µg/mL (≈ 68.9 µM)
- MIC [4]: 64 µg/mL
- MIC [5]: 16 µg/mL

SMILES: CN(C)c1ccc2cc3ccc(N(C)C)cc3nc2c1 [ACRIDINE ORANGE]
- MIC [1]: 512 µg/mL (≈ 1930 µM)
- MIC [2]: 256 µg/mL (≈ 965 µM)
- MIC [6]: 512 µg/mL
- MIC [3]: 256 µg/mL (≈ 965 µM)
- MIC [4]: 512 µg/mL
- MIC [5]: 512 µg/mL

SMILES: CN(C)c1ccc(C(=C2C=CC(=[N+](C)C)C=C2)c2ccc(N(C)C)cc2)cc1.[Cl-] [GENTIAN VIOLET]
- MIC [1]: 2 µg/mL
- MIC [2]: 2 µg/mL
- MIC [6]: 1 µg/mL
- MIC [3]: 2 µg/mL
- MIC [4]: 2 µg/mL
- MIC [5]: 0.5 µg/mL

SMILES: Oc1cc(Cl)ccc1Oc1ccc(Cl)cc1Cl [TRICLOSAN]
- MIC [1]: 0.12 µg/mL (≈ 0.414 µM)
- MIC [2]: 0.12 µg/mL (≈ 0.414 µM)
- MIC [3]: 0.25 µg/mL (≈ 0.863 µM)
- MIC [4]: 1 µg/mL
- MIC [5]: 0.25 µg/mL

SMILES: CN(C)CCC=C1c2ccccc2CCc2ccccc21 [AMITRIPTYLINE]
- MIC [1]: 512 µg/mL (≈ 1850 µM)
- MIC [7]: 256 µg/mL (≈ 923 µM)
- MIC [8]: 1020 µg/mL (≈ 3690 µM)
- MIC [9]: 512 µg/mL (≈ 1850 µM)
- MIC [10]: 256 µg/mL (≈ 923 µM)
- MIC [11]: 512 µg/mL (≈ 1850 µM)
- MIC [12]: 512 µg/mL (≈ 1850 µM)
- MIC [2]: 512 µg/mL (≈ 1850 µM)

SMILES: CSc1ccc2c(c1)N(CCC1CCCCN1C)c1ccccc1S2 (stereo not drawn) [THIORIDAZINE]
- MIC [1]: 1020 µg/mL (≈ 2760 µM)
- MIC [7]: 32 µg/mL (≈ 86.3 µM)
- MIC [8]: 1020 µg/mL (≈ 2760 µM)
- MIC [9]: 1020 µg/mL (≈ 2760 µM)
- MIC [10]: 32 µg/mL (≈ 86.3 µM)
- MIC [11]: 1020 µg/mL (≈ 2760 µM)
- MIC [12]: 1020 µg/mL (≈ 2760 µM)
- MIC [2]: 1020 µg/mL (≈ 2760 µM)

SMILES: O=C(O)c1cn(C2CC2)c2cc(N3CCNCC3)c(F)cc2c1=O [CIPROFLOXACIN]
- MIC [1]: 0.03 µg/mL (≈ 0.0905 µM)
- MIC [2]: 0.03 µg/mL (≈ 0.0905 µM)
- MIC [6]: 0.008 µg/mL
- MIC [3]: 0.03 µg/mL (≈ 0.0905 µM)
- MIC [4]: 0.03 µg/mL
- MIC [5]: 0.015 µg/mL

SMILES: Cc1ccccc1C(OCCN(C)C)c1ccccc1 (stereo not drawn) [ORPHENADRINE]
- MIC [1]: 1020 µg/mL (≈ 3800 µM)
- MIC [7]: 1020 µg/mL (≈ 3800 µM)
- MIC [8]: 1020 µg/mL (≈ 3800 µM)
- MIC [9]: 1020 µg/mL (≈ 3800 µM)
- MIC [10]: 1020 µg/mL (≈ 3800 µM)
- MIC [11]: 1020 µg/mL (≈ 3800 µM)
- MIC [12]: 1020 µg/mL (≈ 3800 µM)
- MIC [2]: 1020 µg/mL (≈ 3800 µM)

SMILES: O=C(N[C@H](CO)[C@H](O)c1ccc([N+](=O)[O-])cc1)C(Cl)Cl [CHLORAMPHENICOL]
- MIC [1]: 4 µg/mL (≈ 12.4 µM)
- MIC [2]: 4 µg/mL (≈ 12.4 µM)
- MIC [6]: 0.015 µg/mL
- MIC [3]: 8 µg/mL (≈ 24.8 µM)
- MIC [4]: 32 µg/mL
- MIC [5]: 16 µg/mL

SMILES: CN(C)CCCN1c2ccccc2Sc2ccc(Cl)cc21 [CHLORPROMAZINE]
- MIC [1]: 512 µg/mL (≈ 1610 µM)
- MIC [7]: 32 µg/mL (≈ 100 µM)
- MIC [8]: 128 µg/mL (≈ 401 µM)
- MIC [9]: 128 µg/mL (≈ 401 µM)
- MIC [10]: 32 µg/mL (≈ 100 µM)
- MIC [11]: 256 µg/mL (≈ 803 µM)
- MIC [12]: 256 µg/mL (≈ 803 µM)
- MIC [2]: 256 µg/mL (≈ 803 µM)
- MIC [3]: 512 µg/mL (≈ 1610 µM)
- MIC [4]: 512 µg/mL
- fold change (FC) [13]: 0.4
- fold change (FC) [14]: 0.7
- fold change (FC) [15]: 2.6
- fold change (FC) [16]: 1.6

SMILES: CC[n+]1c(-c2ccccc2)c2cc(N)ccc2c2ccc(N)cc21.[Br-] [HOMIDIUM BROMIDE]
- MIC [1]: 1020 µg/mL
- MIC [2]: 1020 µg/mL
- MIC (Salmonella typhimurium [17]): 1020 µg/mL
- MIC (Salmonella typhimurium [18]): 2050 µg/mL
- MIC [19]: 1020 µg/mL
- MIC (Salmonella enteritidis): 1020 µg/mL
- MIC [20]: 1020 µg/mL
- MIC [21]: 512 µg/mL
- MIC [22]: 1020 µg/mL
- MIC [23]: 512 µg/mL
- MIC [24]: 1020 µg/mL
- MIC [25]: 1020 µg/mL
- MIC [26]: 1020 µg/mL
- MIC [27]: 1020 µg/mL
- MIC [6]: 8 µg/mL
- MIC [3]: 2050 µg/mL
- MIC [4]: 2050 µg/mL
- MIC [5]: 512 µg/mL

SMILES: CN(C)[C@@H]1C(O)=C(C(N)=O)C(=O)[C@@]2(O)C(O)=C3C(=O)c4c(O)cccc4[C@@](C)(O)[C@H]3C[C@@H]12 [TETRACYCLINE]
- MIC [1]: 2 µg/mL (≈ 4.5 µM)
- MIC [2]: 2 µg/mL (≈ 4.5 µM)
- MIC [6]: 0.25 µg/mL
- MIC [3]: 4 µg/mL (≈ 9 µM)
- MIC [4]: 16 µg/mL
- MIC [5]: 8 µg/mL

SMILES: CCn1cc(C(=O)O)c(=O)c2cc(F)c(N3CCNCC3)cc21 [NORFLOXACIN]
- MIC [1]: 0.06 µg/mL (≈ 0.188 µM)
- MIC [2]: 0.25 µg/mL (≈ 0.783 µM)
- MIC (Salmonella typhimurium [17]): 0.06 µg/mL (≈ 0.188 µM)
- MIC (Salmonella typhimurium [18]): 0.06 µg/mL (≈ 0.188 µM)
- MIC [19]: 0.06 µg/mL (≈ 0.188 µM)
- MIC (Salmonella enteritidis): 0.06 µg/mL (≈ 0.188 µM)
- MIC [20]: 0.06 µg/mL (≈ 0.188 µM)
- MIC [21]: 0.06 µg/mL (≈ 0.188 µM)
- MIC [22]: 0.06 µg/mL (≈ 0.188 µM)
- MIC [23]: 0.06 µg/mL (≈ 0.188 µM)
- MIC [24]: 0.06 µg/mL (≈ 0.188 µM)
- MIC [25]: 0.06 µg/mL (≈ 0.188 µM)
- MIC [26]: 0.06 µg/mL (≈ 0.188 µM)
- MIC [27]: 0.06 µg/mL (≈ 0.188 µM)
- MIC [6]: 0.008 µg/mL
- MIC [3]: 0.25 µg/mL (≈ 0.783 µM)
- MIC [4]: 0.25 µg/mL
- MIC [5]: 0.25 µg/mL

SMILES: CO[C@@H]1[C@@H](OC(N)=O)[C@@H](O)[C@H](Oc2ccc3c(O)c(NC(=O)c4ccc(O)c(CC=C(C)C)c4)c(=O)oc3c2C)OC1(C)C [NOVOBIOCIN]
- MIC [1]: 512 µg/mL (≈ 836 µM)
- MIC [2]: 256 µg/mL (≈ 418 µM)
- MIC [6]: 64 µg/mL
- MIC [3]: 512 µg/mL (≈ 836 µM)
- MIC [4]: 1020 µg/mL
- MIC [5]: 512 µg/mL

SMILES: CN1CCN(CCCN2c3ccccc3Sc3ccc(C(F)(F)F)cc32)CC1 [TRIFLUOPERAZINE]
- MIC [1]: 1020 µg/mL (≈ 2510 µM)
- MIC [7]: 64 µg/mL (≈ 157 µM)
- MIC [8]: 1020 µg/mL (≈ 2510 µM)
- MIC [9]: 1020 µg/mL (≈ 2510 µM)
- MIC [10]: 32 µg/mL (≈ 78.5 µM)
- MIC [11]: 1020 µg/mL (≈ 2510 µM)
- MIC [12]: 1020 µg/mL (≈ 2510 µM)
- MIC [2]: 1020 µg/mL (≈ 2510 µM)
